This is an account of results in BindingDB's records for doi:10.1124/jpet.103.054775 (Cornell University, 2003).

Several values for one entry are separate records, joined by “and”; a condition that tells them apart may be missing. Equal values may be shown once. Non-standard residues stand in square brackets, D forms with d. Residues, ends and D or L forms follow the SMILES beside them. Dmt = Cc1cc(O)cc(C)c1C[C@H](N)C(=O)O

The target of this test is Mu-type opioid receptor (Mus musculus, UniProt P42866).
Mu-type opioid receptor, sequence (P42866 whole entry): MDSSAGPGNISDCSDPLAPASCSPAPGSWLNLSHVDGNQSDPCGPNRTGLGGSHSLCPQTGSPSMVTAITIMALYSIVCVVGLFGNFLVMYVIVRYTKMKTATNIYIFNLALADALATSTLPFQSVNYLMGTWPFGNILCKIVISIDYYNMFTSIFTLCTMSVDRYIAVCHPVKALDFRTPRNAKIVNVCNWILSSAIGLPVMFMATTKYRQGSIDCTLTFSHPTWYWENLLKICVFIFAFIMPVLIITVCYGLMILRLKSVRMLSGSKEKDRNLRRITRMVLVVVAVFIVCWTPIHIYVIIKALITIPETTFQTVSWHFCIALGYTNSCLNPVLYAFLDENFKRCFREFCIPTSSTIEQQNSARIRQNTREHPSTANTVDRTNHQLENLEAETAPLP
Broadly, the Ki is a dissociation constant, usually derived from enzyme kinetics or from competition with a known ligand. Low values mean a stronger hold on the target, high ones a looser hold on the target. Consider `Cc1cc(O)cc(C)c1C[C@H](N)C(=O)N[C@H](CCCN=C(N)N)C(=O)N[C@@H](Cc1ccccc1)C(=O)N[C@@H](CN)C(N)=O` [Dmt-d-Arg-Phe-A2pr-NH2], for which the inhibition constant Ki is 0.0636 nM and 0.145 nM. The figure for `NCCCC[C@H](NC(=O)[C@H](Cc1ccccc1)NC(=O)[C@@H](CCCN=C(N)N)NC(=O)[C@@H](N)Cc1ccc(O)cc1)C(N)=O` [NSC_122222] is 1.69 nM and 12.9 nM.

For the compound `Cc1cc(O)cc(C)c1C[C@H](N)C(=O)N[C@H](CCCN=C(N)N)C(=O)N[C@@H](Cc1ccccc1)C(=O)N[C@@H](CCCN)C(N)=O` [Dmt-d-Arg-Phe-Orn-NH2], the inhibition constant Ki was 0.151 nM and 0.161 nM. As to `Cc1cc(O)cc(C)c1C[C@H](N)C(=O)N[C@H](C)C(=O)N[C@@H](Cc1ccccc1)C(=O)N[C@@H](Cc1ccccc1)C(N)=O` [Dmt-d-Ala-Phe-Phe-NH2] (H-[Dmt][dA]FF-NH2), the Ki was 0.173 nM and 0.174 nM. Regarding `NC[C@H](NC(=O)[C@H](Cc1ccccc1)NC(=O)[C@@H](CCCN=C(N)N)NC(=O)[C@@H](N)Cc1ccc(O)cc1)C(N)=O` [Tyr-d-Arg-Phe-A2pr-NH2], the inhibition constant Ki is 2.55 nM and 12.7 nM. The figure for `NCCC[C@H](NC(=O)[C@H](Cc1ccccc1)NC(=O)[C@@H](CCCN=C(N)N)NC(=O)[C@@H](N)Cc1ccc(O)cc1)C(N)=O` [5-amino-2-{1-[1-[1-amino-2-(4-hydroxyphenyl)ethylcarboxamido]-4-amino(imino)methylamino-(1R)-butylcarboxamido]-2-phenylethylcarboxamido}pentanamide] is 1.2 nM and 10.4 nM; for `C[C@@H](NC(=O)[C@@H](N)Cc1ccc(O)cc1)C(=O)N[C@@H](Cc1ccccc1)C(=O)N[C@@H](Cc1ccccc1)C(N)=O` (H-Y[dA]FF-NH2) it is 1.53 nM and 3.44 nM.
